Measurements: a melting point compilation (Tetko et al.; mined from patent text by program, amines drawn as free bases though some values may be those of a salt)

SMILES	melting point
CCOP(=O)(CC(=O)NC1CC1)OCC	51 to 56 °C
Nc1sc2c(c1C(=O)c1cc3ccccc3o1)CCC2	126 to 129 °C
O=C(CCCN1CCCCC1)c1ccc2sc3ccc(C(=O)CCCN4CCCCC4)cc3c2c1	93 to 95 °C
CCSc1cc2c(c(C(=O)O)c1)OCCO2	153 to 154 °C
CC(CCOc1ccccc1NS(C)(=O)=O)N1CCC(OC(c2ccccc2)c2cccs2)CC1 (centres undefined)	100 to 102 °C
CNc1nc(NS(=O)(=O)c2ccc(N)cc2)cc(N2CCC2)n1	295 to 296 °C
Cn1cccc(O)c1=O	129 to 131 °C
CC(C)NCC(O)COc1ccccc1C1=NNC(=O)CC1 (centres undefined)	124 to 126 °C
Cn1ccnc1Sc1ccc2[nH]nc(Nc3nccs3)c2c1	> 250 °C
O=C(CN1C(=O)c2ccccc2S1(=O)=O)OC1CCCCC1	83 °C
O=C(O)C(Cc1ccccc1)c1ccc2ccn(Cc3ccccc3)c2c1 (centres undefined)	148 to 150 °C
CCCN(c1ccncc1[N+](=O)[O-])n1ccc2ccccc21	84 to 86 °C
CN(C)c1ccc(NC(=O)N(C[C@@H]2CCC[C@H](CN(CC(C)(C)C)C(=O)Nc3ccc(N(C)C)cc3)C2)CC(C)(C)C)cc1	171 to 173 °C
CN1C(=O)CCC2(C)c3ccc(Sc4ccc5ccccc5c4)cc3CCC12 (single isomer, unassigned; (+))	138 to 140 °C
Clc1cc2c(nc1-c1ccccc1Br)OCC2	106 to 117 °C
Cc1nc2cc3[nH]c(-c4ccncc4)nc3cc2s1	> 300 °C
Cc1nn(C)c2c1N(C(=O)CN1CCCCC1)c1ccccc1NC2=O	156 to 158 °C
CN1CC[C@@H](c2c(O)cc(O)c3c(=O)cc(-c4ccc(Br)cc4Cl)oc23)[C@@H]1CO	155 to 156 °C
Nc1nc2c(c3c1ncn3Cc1cc(-c3ccc(F)cc3)no1)NCCC2	227 to 228 °C
Cc1ccc(-c2ccc3c(c2)C=C(CO)CCO3)cc1	91 to 92 °C
CN1C(=O)CC[C@]2(C)c3ccc(Sc4ccc5cccc([N+](=O)[O-])c5n4)cc3CC[C@@H]12	199 to 200 °C
O=C(O)C[C@H]1C[C@@H](CCCCCCc2ccc(Cl)cc2Cl)OC1=O (relative stereo)	57 to 59 °C
CC(=O)c1cc2c(s1)SCCN(CCCCN1CCN(c3ncccn3)CC1)C2=O	118 to 120 °C
CCOC(=O)c1nc(NC)sc1C(=O)CC	84 to 86 °C
Cc1ncc(CN2C(=O)c3ccccc3C2=O)n1-c1ccc(Cl)cc1Cc1ccccc1F	152 to 156 °C
Cc1c(C(=O)N(N)c2ccccc2)nn(-c2ccc(Cl)cc2Cl)c1-c1ccc(Cl)s1	154 to 155 °C

SMILES	melting point
O=C(O)c1csc(Br)n1	227 to 229 °C
CC1(C)OC(=O)Nc2c(F)cc(-c3cc(F)cc(C#N)c3)cc21	256 to 257 °C
COCCc1nc2c(N)nc3ccccc3c2n1CCCCN1CCCS1(=O)=O	156 to 158 °C
NCC1Cc2cc(Cl)cc(-c3ccoc3)c2O1 (centres undefined)	> 250 °C
CSc1nc2c([nH]1)N(Cc1ccc(Cl)cc1)C1NCCN1C2=O (centres undefined)	296 to 297 °C
O=C(O)[C@H](Cc1ccccc1)N[C@@H](CCc1ccccc1)C(=O)OCc1ccccc1	141 to 144 °C
O=C1c2c(Cl)cccc2-n2cnc(/C=C\Cl)c2[C@@H]2CCN12	189 to 191 °C
O=C(CC(=O)C1CC1)c1cccnc1	69 to 70 °C
CCCC(Cc1ccccc1)c1nc2c([nH]1)c(=O)n(CCC)c(=O)n2CCC (centres undefined)	158 to 160 °C
CCCN(CCC)C(=O)n1cnc(S(=O)(=O)C(C)C)n1	61 °C
Cc1nc2c(c3c1[nH]c1ccc(F)cc13)C(=O)CC(C(C)C)C2 (centres undefined)	221 to 223 °C
C=CCn1cc(C(=O)O)c(=O)c2cc(F)c(N3CCN(Cc4ccccc4)CC3)cc21	209 °C
CC1CNc2c(cccc2[N+](=O)[O-])C(=O)N1Cc1ccccc1 (centres undefined)	125 °C
CCCCC(CCCc1cccnc1)CC(NS(=O)(=O)c1ccc(Cl)cc1)C(=O)O (centres undefined)	113 to 114 °C
OC(CCCCCOCc1ccccc1)c1cccc(OCc2ccc3ccccc3n2)c1 (centres undefined)	86 to 89 °C
COP(=O)(c1ccccc1)c1ccc2c(c1)C(NC(=NC#N)Nc1ccc(Cl)cc1)C(O)C(C)(C)O2 (centres undefined)	150 °C
O=C(Nc1nnc(SCc2ccccc2)s1)C1CC1	182 to 184 °C
CCN1C(=O)Cc2cc(C(C)=O)ccc21	141 to 145 °C
CCCNc1nc(=O)n(C2CC(N=[N+]=[N-])C(COC(C)=O)O2)cc1C (centres undefined)	138 to 140 °C
CCCCCCCNC(=O)Nc1ccccc1C(=O)NC1CCN(C(=O)Oc2ccccc2)CC1	142 to 144 °C
OCc1ccc(-c2ccc3[nH]cc(C[C@H]4CCCN4)c3c2)cc1	65 to 69 °C
CNc1ccc(OC2CCN(c3ccncc3)CC2)cc1	161 to 164 °C
O=C(NCP(=O)(O)O)c1ccccc1	171 to 173 °C
Cc1ccccc1-c1c(NC(=O)Nc2ccc(F)cc2F)c(=O)oc2cc3c(cc12)CCC3	223 to 224 °C
Cc1cc(C#Cc2cccc(-c3ccccc3)c2)ccn1	56 to 58 °C
CCCCCCC(C)(C)c1cc(OCc2ccccc2)c(C2=C(CC(=O)O)CCC(C)C2)c(OCc2ccccc2)c1 (centres undefined)	69 to 70 °C

Other lines, results leading:

melting point	SMILES
254 to 256 °C	COc1ccc(C(=O)Oc2ccc(C(=O)O)c(F)c2)cc1C12CC3CC(CC(C3)C1)C2
155 to 157 °C	CNS(=O)(=O)CCCn1cnc2c(N)nc3ccccc3c21
50 to 51 °C	CCOc1cc(Oc2ccc(C(F)(F)F)cn2)ccc1CCCO
176 to 178 °C	CCN(CC)CCC(=O)NC1(c2ccccc2Cl)C(=O)Nc2ccc(Cl)cc21 (centres undefined)
256 to 259 °C	CCOC(=O)c1cc2c(=O)n(-c3ccccc3)c3ccccc3n2c1
95 °C	CCCC1CCC(c2cc(F)c(C(F)(F)Oc3ccc(-c4cc(F)c(C(F)(F)F)c(F)c4)c(F)c3)c(F)c2)OC1 (centres undefined)
73.5 to 74.5 °C	CCOC(=O)/C=C/c1ccc(OCOC)cc1Oc1ncc(C(F)(F)F)cc1Cl
109 to 112 °C	CCC(Oc1ccc([N+](=O)[O-])cc1)C(=O)NCc1ccccc1OC (centres undefined)
215 to 216 °C	COc1cc2ncnc(Nc3ccc4ccccc4n3)c2cc1OC
148 to 149 °C	Cc1cc(OCc2cnc(-c3ccc(C(F)(F)F)cc3)cc2C(F)(F)F)ccc1OC(C)(C)C(=O)O
137 to 138 °C	Cc1nc(C)c(Cl)c(CNCc2ccc(O)cn2)n1
165 °C	Cn1cncc1C(N)(c1ccc(Cl)cc1)c1ccc2c(c1)c(CCc1cccc(Cl)c1)cc(=O)n2C (centres undefined)
111 to 112 °C	COCC(=O)N(C)c1cccc(OCc2ccccc2)c1[N+](=O)[O-]
147 to 148 °C	O=C1Cc2cc(OCc3ccc4ccccc4n3)ccc2N1c1c(Cl)cccc1Cl
105 to 108 °C	COc1ccc2c(c1)CC(NC(C)=O)CC2 (centres undefined)
124 to 125 °C	Cc1sc(-c2ccccc2)nc1COc1ccc(C#N)cn1
141 to 143 °C	COc1cc2c(Nc3ccc(Cl)cc3F)ncnc2cc1O
210 to 211 °C	COc1ccc2ccn(CC(N)=O)c2c1
200 to 202 °C	COCOc1ccc(-c2ncc3ncc(N4CCNCC4=O)cc3n2)cc1
199 to 201 °C	Cc1cc(O)ccc1Nc1nc(N)ncc1Oc1ccc(Cl)cc1
86 to 87.5 °C	CCCCCCCCOc1ccc(Cl)c2c(=O)c3ccccc3sc12
170 to 171 °C	N#Cc1ccc(NC(=O)c2cccc(OCc3ccc(F)cc3)c2)nc1
160 to 162 °C	COC(=O)c1c(SC)nn(-c2c(Cl)cc(Cl)cc2Cl)c1N
76 to 77 °C	COc1cc(C(C)=O)cc(OC)c1OCCOc1ccc2ccccc2c1

melting point	SMILES
128 to 130 °C	O=C(Nc1ccc(Br)cn1)C(CC1CCCC1)c1ccc(Cl)c([N+](=O)[O-])c1 (centres undefined)
214 to 215 °C	COC(=O)c1nc2cc(Cl)c3cccnc3c2o1
64 to 66 °C	Cc1nc(N2C(=O)N(Cc3ccc(F)cc3)CC2O)sc1C(=O)NCc1cccnc1 (centres undefined)
220 to 221 °C	CC(=O)Nc1nc(CCc2ccc(NC(NC(=O)OC(C)(C)C)NC(=O)OC(C)(C)C)cc2)c(Cl)s1
212 to 214 °C	COC(=O)c1cc(C(=O)OC)n(C(c2ccccc2)(c2ccccc2)c2ccccc2)n1
193 to 194 °C	CC(C)N1Cc2cc(C(=O)O)ccc2N(CCN2CC=C(c3c[nH]c4cc(F)ccc34)CC2)S1(=O)=O
186 °C	Cn1c(=O)c(C(=O)NC2CCCCC2)c(Cl)c2cc(O)ccc21
282 to 283 °C	CCOC(=O)Cn1c(=O)c(=O)[nH]c2cc(Br)ccc21
233 to 235 °C	O=c1[nH]ccc2c1ccn2-c1ccc(C(F)(F)F)cc1Cl
196 to 197 °C	Cc1cccc(-c2c(CC(=O)Nc3ccc(F)cc3C(F)(F)F)c(=O)oc3cc4c(cc23)CC=C4)c1
233 to 235 °C	COCCOCOc1c(C(C)(C)C)cc(-c2nc(N)n[nH]2)cc1C(C)(C)C
> 300 °C	Clc1ccc(-c2cnc3cc4cn[nH]c4cc3n2)s1
125 to 126 °C	O=C1Cc2ccccc2Sc2cc(Cl)c(F)cc21
192 to 193 °C	CNC(=O)c1cccc(NC(=O)COc2cccc(Cl)c2Cl)c1
132 to 138 °C	CC(Oc1ccc(Oc2cnc3cc(Cl)ccc3n2)cc1F)C(=O)O (centres undefined)
149 to 150 °C	COCCCS(=O)(=O)NC(=O)CCc1cc(C(C)(C)C)nn1Cc1ccc(C(F)(F)F)cc1Cl
67 to 72 °C	CN(C(=O)CC(CCN1CCC(Cc2ccccc2)CC1)c1ccc(Cl)c(Cl)c1)c1ccc(Cl)cc1 (centres undefined)
67 to 69 °C	CC(Oc1cc(O)ccn1)C(F)(F)F (centres undefined)
249 to 250 °C	N#Cc1cnc2c(NC(=O)c3c(Cl)cccc3Cl)cccc2c1CO
98 to 100 °C	CCCCNc1nc2ccccc2c2c1ncn2C
167 to 169 °C	CCNc1nc(-c2ccccc2)c(-c2ccc(=O)n(C(C)C)n2)s1
131 to 133 °C	COc1ccc(Cl)cc1C1CC(=O)c2c(C)ccnc2C1 (centres undefined)
179 to 182 °C	O=C(c1ccc(Cl)c(Cl)c1)N1CCCC(c2cc(Br)cc(Br)c2)=N1
